Test results taken from patent publication US11426374B2, “Modification of the pH and other physical properties of oxaloacetic acid to allow for enhanced stability and multiple delivery systems” (Terra Biological LLC, priority 2015, dated 2022).
“Also recorded” adds a separate entry of the source.

Columns and labels:
[1] = Lozenge of oxaloacetic acid with a test substance, stability in open environment for one week; conditions: for decomposition of oxaloacetic acid compounded with the ingredient and compressed into a lozenge: examination over a period of one week; for effective way of increasing the pH without degrading the oxaloacetic acid: pH modifier combined with oxaloacetic acid
From the text: The Applicant set out on a path of discovery to ascertain what compounds would be stable with oxaloacetic acid—not just for pH modification, but for other physical properties necessary for various delivery systems, such as color stabilization, lozenge dissolve time, lozenge friability, taste, lozenge release from the tablet mold, flow agents, and bulking agents in addition to pH modification. Preparations of oxaloacetic acid was compounded with various ingredients and compressed into a lozenge for examination over a period of one week.
A lozenge is created consisting of 100 mg oxaloacetic acid, and 100 mg of a test substance. The powders are compressed in a tablet mold and released. Each test tablet is placed on a cardboard for one week to ascertain stability in an open environment, such as an open bottle.
The procedure in Example 1 was followed, but with the following individual modifiers to oxaloacetic acid: • Calcium Carbonate (pH Modifier) • Erythitol (Taste Modifier) • Dicalcium Phosphate dihydrate (pH Modifier and lozenge binder) • Vegetable Steric Acid (Release Agent) • Ascorbyl Palmitate (Release Agent)

[2] = oxaloacetic acid with anhydrous NaOH or KOH or both
[3] = pH of solution created by oxaloacetic acid delivered to the mouth; format: physicochemical; conditions: delivered to the mouth in powder or lozenge form
From the text: Other methods of delivery are transdermal patches, sublingual lozenges, buccal lozenges, inhalation preparations and anal or vaginal suppositories. These methods of delivery can provide higher percentages of the given oxaloacetate to the blood stream for distribution to various organs, and provide the oxaloacetate quicker than the oral route. These delivery methods face a problem with the acidity of oxaloacetic acid. As an example of this, oxaloacetic acid delivered to the mouth in powder or lozenge form creates a solution at a pH of approximately 2.3. This low pH degrades the enamel on the teeth, and provides a large challenge to continued long-term use of oxaloacetate in sublingual lozenges and buccal lozenges. The effect on the teeth is apparent after just 100 mg oxaloacetate is taken either sublingually or via buccal lozenge. The low pH also causes a painful burning sensation in the lungs if inhaled. Vaginal and anal suppositories are also uncomfortable at low pH. Transdermal patches at low pH are also uncomfortable.

[4] = Yoshikawa 1968; Cash 2013; room temperature for the sodium salt; cited from earlier work

Compound	decomposition of oxaloacetic acid compounded with the ingredient and compressed into a lozenge [1]	further results
CCCCCCCCCCCCCCCC(=O)OC[C@H](O)[C@H]1OC(=O)C(O)=C1O [Ascorbyl Palmitate]	effective	
O=C([O-])[O-].[Ca+2] [Calcium Carbonate]	effective	effective way of increasing the pH without degrading the oxaloacetic acid [1]: effective
O=P([O-])([O-])O.[Ca+2] [Calcium Phosphate Dibasic]	rapid decomposition	
O=C(O)CC(O)(CC(=O)O)C(=O)O [Citric Acid]	rapid decomposition	
O.O.O=P([O-])([O-])O.[Ca+2] [Dicalcium Phosphate dihydrate]	effective	
OC[C@@H](O)[C@@H](O)CO [Erythitol]	effective	
[K+].[OH-] [KOH, potassium hydroxide]	rapid decomposition	effective way of increasing the pH without degrading the oxaloacetic acid [1]: not effective; degradation of sublingual tablets after manufacture [2]: degraded within a few days
[Mg+2].[OH-].[OH-] [Magnesium Hydroxide]	rapid decomposition	
[O]=[Mg] [Magnesium Oxide]	rapid decomposition	
[Cl-].[Na+] [NaCl]	rapid decomposition	
[Na+].[OH-] [NaOH, sodium hydroxide]	rapid decomposition	
O=C([O-])O.[K+] [Potassium Bicarbonate]	rapid decomposition	
O=C([O-])CC(O)(CC(=O)[O-])C(=O)[O-].[K+].[K+].[K+] [Potassium Citrate]	rapid decomposition	
O=C([O-])O.[Na+] [Sodium bicarbonate]	rapid decomposition	effective way of increasing the pH without degrading the oxaloacetic acid [1]: not effective
OC[C@H]1O[C@@](CO)(O[C@H]2O[C@H](CO)[C@@H](O)[C@H](O)[C@H]2O)[C@@H](O)[C@@H]1O [Table sugar]	rapid decomposition	
[O]=[Ti]=[O] [TiO2]	rapid decomposition	
CCCCCCCCCCCCCCCCCC(=O)O [Vegetable Steric Acid]	effective	
OC[C@@H](O)[C@H](O)[C@@H](O)CO [Xylitol]	rapid decomposition; also recorded: did not work well	
O=C(O)CC(=O)C(=O)O [oxaloacetic acid]		pH of solution [3]: approximately 2.3; stability [4]: not stable at all
O=C([O-])CC(=O)C(=O)O.[Na+] [sodium oxaloacetate]		stability [4]: not stable, and quickly degrades at room temperature
Magnesium Stearate	rapid decomposition	
Silicon Dioxide	rapid decomposition	
